Source: DBAASP
In brackets after ≈: the same amount, converted by molar mass. Blank lines part the entries; values can stand above or below the compound they belong to.

What was measured:
Test in all cases: ≥ marks a high value that may be exact or a test limit, other limits are often not marked, values filed in µg/mL are converted to µM
[1] = system: Aspergillus flavus KCTC 9471
[2] = system: Aspergillus fumigatus KCTC 6145
[3] = system: Bacillus subtilis KCTC 1918
[4] = system: Botrytis cinerea
[5] = system: Candida albicans KCTC 7270
[6] = system: Escherichia coli KCTC 1682
[7] = system: Escherichia coli O157:H7 ATCC 43895
[8] = system: Escherichia coli
[9] = system: Fusarium verticillioides
[10] = system: Listeria monocytogenes KCTC 3710
[11] = system: Proteus vulgaris
[12] = system: Pseudomonas aeruginosa KCTC 1637
[13] = system: Pseudomonas aeruginosa
[14] = system: Saccharomyces cerevisiae KCTC 7296
[15] = system: Salmonella typhimurium KCTC 1926
[16] = system: Staphylococcus aureus KCTC 1621
[17] = system: Staphylococcus epidermidis KCTC 1917
[18] = system: Staphylococcus epidermidis
[19] = system: Trichosporon beigelii KCTC 7707
[20] = system: Acinetobacter baumannii Q13-0717
[21] = system: Acinetobacter baumannii
[22] = system: Campylobacter jejuni ATCC 33292
[23] = system: Campylobacter jejuni NCTC 11161
[24] = system: Campylobacter jejuni NCTC 11351
[25] = system: Campylobacter jejuni
[26] = system: Enterococcus faecalis JH-2-2
[27] = system: Escherichia coli K-12
[28] = system: Klebsiella pneumoniae ATCC 700603
[29] = system: Klebsiella pneumoniae NCTC 13442
[30] = system: Klebsiella pneumoniae Q14-0285
[31] = system: Listeria monocytogenes NCTC 11994
[32] = system: Pseudomonas aeruginosa ATCC 27853
[33] = system: Pseudomonas aeruginosa PAO1
[34] = system: Pseudomonas aeruginosa Q14-0208
[35] = system: Pseudomonas aeruginosa Q14-0890
[36] = system: Salmonella typhimurium SL1344
[37] = system: Staphylococcus aureus ATCC 29213
[38] = system: Staphylococcus aureus ATCC 33591
[39] = system: Staphylococcus aureus MRSA-15
[40] = system: Staphylococcus aureus NCTC 12493
[41] = system: Staphylococcus aureus Q14-0320
[42] = system: Staphylococcus aureus RN4220
[43] = system: Staphylococcus aureus USA 300
[44] = system: Acinetobacter baumannii ATCC 15308
[45] = system: Citrobacter sp.
[46] = system: Enterobacter cloacae
[47] = system: Escherichia coli ATCC 25922
[48] = system: Klebsiella pneumoniae
[49] = system: Pseudomonas aeruginosa ATCC 15442
[50] = system: Staphylococcus aureus ATCC 25923
[51] = system: Staphylococcus aureus
[52] = system: Streptococcus pneumoniae

Structure (SMILES): CC[C@H](C)[C@H](NC(=O)[C@H](CCCCN)NC(=O)[C@H](CO)NC(=O)[C@H](Cc1ccccc1)NC(=O)[C@H](CC(C)C)NC(=O)[C@H](CCCCN)NC(=O)[C@H](CCC(=O)O)NC(=O)[C@H](CC(C)C)NC(=O)[C@H](CCCN=C(N)N)NC(=O)[C@H](CCCCN)NC(=O)[C@H](Cc1ccccc1)NC(=O)[C@@H](NC(=O)[C@H](CCCCN)NC(=O)[C@H](CCCCN)NC(=O)[C@H](C)N)C(C)C)C(=O)N[C@@H](CCC(N)=O)C(=O)N[C@@H](CC(N)=O)C(=O)N[C@@H](CC(=O)O)C(=O)N[C@@H](CCCCN)C(N)=O [AKKVFKRLEKLFSKIQNDK]
MIC [1]: ≥ 50 µM
MIC [2]: ≥ 50 µM
MIC [3]: 3.13 µM (≈ 7.26 µg/mL)
MIC [4]: 12.5 µM (≈ 29 µg/mL)
MIC [5]: 25 µM (≈ 58 µg/mL)
MIC [6]: 12.5 µM (≈ 29 µg/mL)
MIC [7]: 12.5 µM (≈ 29 µg/mL)
MIC [8]: 3.13 µM (≈ 7.26 µg/mL)
MIC [9]: 25 µM (≈ 58 µg/mL)
MIC [10]: 6.25 µM (≈ 14.5 µg/mL)
MIC [11]: 4.42 µM (≈ 10.3 µg/mL)
MIC [12]: 1.56 µM (≈ 3.62 µg/mL)
MIC [13]: 6.25 µM (≈ 14.5 µg/mL)
MIC [14]: 25 µM (≈ 58 µg/mL)
MIC [15]: 1.56 µM (≈ 3.62 µg/mL)
MIC [16]: 12.5 µM (≈ 29 µg/mL)
MIC [17]: 3.12 µM (≈ 7.25 µg/mL)
MIC [18]: 6.25 µM (≈ 14.5 µg/mL)
MIC [19]: 3.13 µM (≈ 7.26 µg/mL)

MIC [20]: 3.29 µM (≈ 8 µg/mL)
MIC [21]: 6.57 µM (≈ 16 µg/mL)
MIC [22]: 13.1 µM (≈ 32 µg/mL)
MIC [23]: 13.1 µM (≈ 32 µg/mL)
MIC [24]: ≥ 52.6 µM
MIC [25]: ≥ 52.6 µM
MIC [26]: 13.1 µM (≈ 32 µg/mL)
MIC [27]: 26.3 µM (≈ 64 µg/mL)
MIC [8]: > 52.6 µM
MIC [28]: 26.3 µM (≈ 64 µg/mL)
MIC [29]: ≥ 52.6 µM
MIC [30]: 26.3 µM (≈ 64 µg/mL)
MIC [31]: 13.1 µM (≈ 32 µg/mL)
MIC [32]: > 52.6 µM
MIC [33]: 52.6 µM (≈ 128 µg/mL)
MIC [34]: 13.1 µM (≈ 32 µg/mL)
MIC [35]: 26.3 µM (≈ 64 µg/mL)
MIC [13]: 105 µM (≈ 256 µg/mL)
MIC [36]: 13.1 µM (≈ 32 µg/mL)
MIC [37]: > 52.6 µM
MIC [38]: ≥ 52.6 µM
MIC [39]: 13.1 µM (≈ 32 µg/mL)
MIC [40]: 26.3 µM (≈ 64 µg/mL)
MIC [41]: ≥ 52.6 µM
MIC [42]: 13.1 µM (≈ 32 µg/mL)
MIC [43]: ≥ 105 µM
Structure (SMILES): CC[C@H](C)[C@H](NC(=O)[C@H](CCCN=C(N)N)NC(=O)[C@@H](NC(=O)[C@H](CC(C)C)NC(=O)[C@H](CC(C)C)NC(=O)[C@H](CCCCN)NC(=O)[C@H](CC(N)=O)NC(=O)[C@@H](NC(=O)[C@H](CCCN=C(N)N)NC(=O)[C@H](CCCN=C(N)N)NC(=O)[C@H](CC(C)C)NC(=O)[C@@H](N)Cc1cnc[nH]1)[C@@H](C)CC)[C@@H](C)O)C(=O)NCC(=O)N[C@@H](CC(C)C)C(=O)N[C@@H](Cc1ccc(O)cc1)C(=O)N[C@@H](CCCN=C(N)N)C(=O)N[C@@H](Cc1cnc[nH]1)C(=O)N[C@@H](C)C(=O)N[C@@H](Cc1ccccc1)C(=O)NCC(=O)O [HLRRINKLLTRIGLYRHAFG]

MIC [44]: ≥ 126 µM
MIC [45]: ≥ 126 µM
MIC [46]: ≥ 126 µM
MIC [47]: 15.7 µM (≈ 31.2 µg/mL)
MIC [48]: > 126 µM
MIC [49]: 15.7 µM (≈ 31.2 µg/mL)
MIC [50]: 15.7 µM (≈ 31.2 µg/mL)
MIC [51]: 31.4 µM (≈ 62.5 µg/mL)
MIC [52]: 31.4 µM (≈ 62.5 µg/mL)
Structure (SMILES): NC(=O)[C@H](CCCN=C(N)N)NC(=O)[C@H](CCCN=C(N)N)NC(=O)[C@H](Cc1c[nH]c2ccccc12)NC(=O)[C@@H]1CCCN1C(=O)[C@H](Cc1c[nH]c2ccccc12)NC(=O)[C@H](CCCN=C(N)N)NC(=O)[C@@H]1CCCN1C(=O)[C@H](Cc1c[nH]c2ccccc12)NC(=O)[C@H](CCCN=C(N)N)NC(=O)[C@H](Cc1c[nH]c2ccccc12)NC(=O)[C@@H]1CCCN1C(=O)[C@H](CCCN=C(N)N)NC(=O)[C@@H](N)CCCN=C(N)N [RRPWRWPRWPWRR]
